Assay [1] addresses T1, Coagulation factor XII (Homo sapiens, UniProt P00748).
T1 sequence (P00748 whole entry): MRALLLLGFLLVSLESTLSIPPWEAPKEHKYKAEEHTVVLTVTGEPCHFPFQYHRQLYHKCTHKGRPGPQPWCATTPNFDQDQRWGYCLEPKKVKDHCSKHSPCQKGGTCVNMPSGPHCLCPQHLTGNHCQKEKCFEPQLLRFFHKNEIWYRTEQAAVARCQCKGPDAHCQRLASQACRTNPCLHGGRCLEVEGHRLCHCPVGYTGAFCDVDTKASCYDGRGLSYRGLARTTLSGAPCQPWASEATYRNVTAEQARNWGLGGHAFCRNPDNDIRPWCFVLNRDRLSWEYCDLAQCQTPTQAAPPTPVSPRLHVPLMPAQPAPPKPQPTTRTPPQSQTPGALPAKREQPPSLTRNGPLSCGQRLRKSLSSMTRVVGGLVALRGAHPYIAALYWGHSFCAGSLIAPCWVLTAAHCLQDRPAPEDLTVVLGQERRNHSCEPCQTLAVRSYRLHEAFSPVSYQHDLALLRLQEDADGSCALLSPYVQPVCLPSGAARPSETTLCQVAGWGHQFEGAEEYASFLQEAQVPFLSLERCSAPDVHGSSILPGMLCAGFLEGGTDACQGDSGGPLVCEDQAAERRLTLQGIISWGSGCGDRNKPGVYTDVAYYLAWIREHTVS
As to the kind of experiment: Inhibition of human factor 12a using Boc-Gly-Gln-Arg-AMC substrate incubated for 1 hr by fluorescence assay.

Assay [2] concerns the target T1, Coagulation factor XII. As to the kind of experiment: Inhibition of human factor 12a using Boc-Gly-Gln-Arg-AMC substrate incubated for 1 hr in presence of 0% Tween20 surfactant by fluorescence assay.
Assay [3] has as its target T1, Coagulation factor XII. As to the kind of experiment: Inhibition of human factor 12a using Boc-Gly-Gln-Arg-AMC substrate incubated for 1 hr in presence of 0.01% Tween20 surfactant by fluorescence assay.
Assay [4] addresses T1, Coagulation factor XII. As to the kind of experiment: Inhibition of human factor 12a using Boc-Gly-Gln-Arg-AMC substrate incubated for 1 hr in presence of 0.02% Tween20 surfactant by fluorescence assay.

As usually defined, the IC50 is the concentration that gives 50% inhibition. As to `COc1ccccc1C(=O)n1nnc2ccccc21`, the IC50 against Coagulation factor XII [1] came out at 7.21 µM.

In the case of `COc1ccc(/C=C(\C#N)c2nc3ccccc3[nH]2)cc1OC`, the IC50 on Coagulation factor XII [1] is greater than 50 µM.

Consider `N#C/C(=C\c1ccccc1)c1nc2ccccc2[nH]1`, for which the IC50 on Coagulation factor XII [1] was greater than 50 µM.

As for `O=C(c1ccc(Br)cc1)n1nnc2ccccc21`, at Coagulation factor XII [1], the IC50 worked out at 0.6 µM.

On Coagulation factor XII [1], `O=C(c1ccco1)n1nnc2ccccc21` had a half-inhibitory concentration (IC50) of 34.1 µM.

For the compound `COc1ccccc1C(=O)n1nc(-c2cccnc2)nc1N`, the IC50 came to 0.68 µM on Coagulation factor XII [1], 1.85 µM on Coagulation factor XII [2], 2.63 µM at Coagulation factor XII [3] and 2.43 µM at Coagulation factor XII [4].

`O=C(c1ccc(Cl)cc1)n1nnc2ccccc21` showed an IC50 at Coagulation factor XII [1] of 31.7 µM.

Regarding `Cc1ccc(/C=C(\C#N)c2nc3ccccc3[nH]2)cc1`, the 50% inhibitory concentration (IC50) against Coagulation factor XII [1] was greater than 50 µM.

`Cc1ccc2nc(/C(C#N)=C/c3ccccc3)[nH]c2c1` returned an IC50 against Coagulation factor XII [1] greater than 50 µM.

Turning to `COc1ccc(/C=C(\C#N)c2nc3ccc(C)cc3[nH]2)cc1`, the IC50 at Coagulation factor XII [1] is greater than 50 µM.

As for `COc1cccc(/C=C(\C#N)c2nc3ccccc3[nH]2)c1`, the IC50 against Coagulation factor XII [1] was greater than 50 µM.

With `COC(=O)c1ccc(/C=C(\C#N)c2nc3ccc(C)cc3[nH]2)cc1`, the IC50 on Coagulation factor XII [1] was greater than 50 µM.

Regarding `COc1cc(OC)cc(C(=O)n2nnc3ccccc32)c1`, it took 25.4 µM to reach half-maximal inhibition on Coagulation factor XII [1] (IC50).

The record behind these values is ChEMBL document CHEMBL4190342, “Identifying novel factor XIIa inhibitors with PCA-GA-SVM developed vHTS models” (Eur J Med Chem, 2017).
